Experimental data as given in ChEMBL document CHEMBL3885861, “Open TG-GATES”.

Species: Rattus norvegicus
Assay: Open TG-GATES - Regimen: Daily Repeat
Assay type: toxicity, organism-based, Sprague-Dawley
Design: regimen Daily Repeat, gender Male, age 6 weeks
Settings: in vivo, po, 300 mg/kg, route gavage, dose level Middle; for APTT / Bas / Eos / Fbg / Hb / Ht / Lym / MCH / MCHC / MCV / Mono / Neu / PT / Plat / RBC / Ret / WBC: tissue Blood; for KIDNEY_L / KIDNEY_R / KIDNEY_TOTAL: tissue Kidney; for LIVER: tissue Liver; for A/G / ALP / ALT / AST / BUN / CRE / Ca / Cl / DBIL / GLC / IP / K / LDH / Na / PL / RALB / TBIL / TC / TG / TP / gamma-GTP: tissue Plasma

CCCCNC(=O)NS(=O)(=O)c1ccc(C)cc1 [TOLBUTAMIDE]
TERMINAL_BW (72 h, time 3 day): 233.2 g
APTT (72 h, time 3 day): 17 s
Bas (72 h, time 3 day): 0%
Eos (72 h, time 3 day): 1%
Fbg (72 h, time 3 day): 287.2 mg/dL
Hb (72 h, time 3 day): 13.7 g/dL
Ht (72 h, time 3 day): 41.8%
Lym (72 h, time 3 day): 80%
MCH (72 h, time 3 day): 20.8 pg
MCHC (72 h, time 3 day): 32.8%
MCV (72 h, time 3 day): 63.2 fL
Mono (72 h, time 3 day): 2.6%
Neu (72 h, time 3 day): 15.6%
PT (72 h, time 3 day): 13 s
Plat (72 h, time 3 day): 122.8 x10_4/uL
RBC (72 h, time 3 day): 661 x10_4/ul
Ret (72 h, time 3 day): 6.3%
WBC (72 h, time 3 day): 108 x10_2/uL
KIDNEY_L (72 h, time 3 day): 1 g
KIDNEY_R (72 h, time 3 day): 1 g
KIDNEY_TOTAL (72 h, time 3 day): 2 g
LIVER (72 h, time 3 day): 10.8 g
A/G (72 h, time 3 day): 0.9
ALP (72 h, time 3 day): 1683.8 IU/L
ALT (72 h, time 3 day): 49.4 IU/L
AST (72 h, time 3 day): 70.2 IU/L
BUN (72 h, time 3 day): 13.2 mg/dL
CRE (72 h, time 3 day): 0.2 mg/dL
Ca (72 h, time 3 day): 11.1 mg/dL
Cl (72 h, time 3 day): 105 meq/L
DBIL (72 h, time 3 day): 0.01 mg/dL
GLC (72 h, time 3 day): 176.6 mg/dL
IP (72 h, time 3 day): 8.2 mg/dL
K (72 h, time 3 day): 4 meq/L
LDH (72 h, time 3 day): 69.8 IU/L
Na (72 h, time 3 day): 142.4 meq/L
PL (72 h, time 3 day): 151 mg/dL
RALB (72 h, time 3 day): 2.6 g/dL
TBIL (72 h, time 3 day): 0.062 mg/dL
TC (72 h, time 3 day): 79.2 mg/dL
TG (72 h, time 3 day): 86.4 mg/dL
TP (72 h, time 3 day): 5.5 g/dL
gamma-GTP (72 h, time 3 day): 1 IU/L
TERMINAL_BW ([…], time 7 day): 265.6 g
TERMINAL_BW ([…], time 14 day): 327.4 g
TERMINAL_BW ([…], time 28 day): 387.4 g
APTT ([…], time 7 day): 17.8 s
Bas ([…], time 7 day): 0.4%
Eos ([…], time 7 day): 1%
Fbg ([…], time 7 day): 287 mg/dL
Hb ([…], time 7 day): 14 g/dL
Ht ([…], time 7 day): 42.1%
Lym ([…], time 7 day): 81.6%
MCH ([…], time 7 day): 20.9 pg
MCHC ([…], time 7 day): 33.3%
MCV ([…], time 7 day): 62.5 fL
Mono ([…], time 7 day): 2.2%
Neu ([…], time 7 day): 14.6%
PT ([…], time 7 day): 12.7 s
Plat ([…], time 7 day): 118.8 x10_4/uL
RBC ([…], time 7 day): 674.4 x10_4/ul
Ret ([…], time 7 day): 5.3%
WBC ([…], time 7 day): 114.8 x10_2/uL
APTT ([…], time 14 day): 18 s
Bas ([…], time 14 day): 0.4%
Eos ([…], time 14 day): 1%
Fbg ([…], time 14 day): 290.4 mg/dL
Hb ([…], time 14 day): 14.6 g/dL
Ht ([…], time 14 day): 44.4%
Lym ([…], time 14 day): 78.2%
MCH ([…], time 14 day): 19.6 pg
MCHC ([…], time 14 day): 32.8%
MCV ([…], time 14 day): 59.8 fL
Mono ([…], time 14 day): 1.8%
Neu ([…], time 14 day): 18.4%
PT ([…], time 14 day): 12.8 s
Plat ([…], time 14 day): 120.3 x10_4/uL
RBC ([…], time 14 day): 743.4 x10_4/ul
Ret ([…], time 14 day): 4.3%
WBC ([…], time 14 day): 98.4 x10_2/uL
APTT ([…], time 28 day): 20 s
Bas ([…], time 28 day): 0.6%
Eos ([…], time 28 day): 1%
Fbg ([…], time 28 day): 266.6 mg/dL
Hb ([…], time 28 day): 15.4 g/dL
Ht ([…], time 28 day): 45.4%
Lym ([…], time 28 day): 81.4%
MCH ([…], time 28 day): 18.7 pg
MCHC ([…], time 28 day): 34%
MCV ([…], time 28 day): 55.2 fL
Mono ([…], time 28 day): 2.4%
Neu ([…], time 28 day): 13.8%
PT ([…], time 28 day): 13.4 s
Plat ([…], time 28 day): 102.9 x10_4/uL
RBC ([…], time 28 day): 823.4 x10_4/ul
Ret ([…], time 28 day): 2.2%
WBC ([…], time 28 day): 134 x10_2/uL
KIDNEY_L ([…], time 7 day): 1.1 g
KIDNEY_R ([…], time 7 day): 1.1 g
KIDNEY_TOTAL ([…], time 7 day): 2.2 g
KIDNEY_L ([…], time 14 day): 1.3 g
KIDNEY_R ([…], time 14 day): 1.3 g
KIDNEY_TOTAL ([…], time 14 day): 2.5 g
KIDNEY_L ([…], time 28 day): 1.4 g
KIDNEY_R ([…], time 28 day): 1.4 g
KIDNEY_TOTAL ([…], time 28 day): 2.8 g
LIVER ([…], time 7 day): 12.4 g
LIVER ([…], time 14 day): 14.8 g
LIVER ([…], time 28 day): 15.5 g
A/G ([…], time 7 day): 0.8
ALP ([…], time 7 day): 1624 IU/L
ALT ([…], time 7 day): 42 IU/L
AST ([…], time 7 day): 65.2 IU/L
BUN ([…], time 7 day): 16.6 mg/dL
CRE ([…], time 7 day): 0.2 mg/dL
Ca ([…], time 7 day): 10.8 mg/dL
Cl ([…], time 7 day): 103.8 meq/L
DBIL ([…], time 7 day): 0.008 mg/dL
GLC ([…], time 7 day): 204.8 mg/dL
IP ([…], time 7 day): 7.5 mg/dL
K ([…], time 7 day): 4.1 meq/L
LDH ([…], time 7 day): 57.4 IU/L
Na ([…], time 7 day): 141 meq/L
PL ([…], time 7 day): 161 mg/dL
RALB ([…], time 7 day): 2.5 g/dL
TBIL ([…], time 7 day): 0.052 mg/dL
TC ([…], time 7 day): 76.4 mg/dL
TG ([…], time 7 day): 135.8 mg/dL
TP ([…], time 7 day): 5.6 g/dL
gamma-GTP ([…], time 7 day): 1 IU/L
A/G ([…], time 14 day): 0.8
ALP ([…], time 14 day): 1281 IU/L
ALT ([…], time 14 day): 41.4 IU/L
AST ([…], time 14 day): 69 IU/L
BUN ([…], time 14 day): 16 mg/dL
CRE ([…], time 14 day): 0.2 mg/dL
Ca ([…], time 14 day): 10.9 mg/dL
Cl ([…], time 14 day): 104.2 meq/L
DBIL ([…], time 14 day): 0.012 mg/dL
GLC ([…], time 14 day): 193.4 mg/dL
IP ([…], time 14 day): 6.9 mg/dL
K ([…], time 14 day): 4 meq/L
LDH ([…], time 14 day): 55.4 IU/L
Na ([…], time 14 day): 142.2 meq/L
PL ([…], time 14 day): 158.6 mg/dL
RALB ([…], time 14 day): 2.7 g/dL
TBIL ([…], time 14 day): 0.06 mg/dL
TC ([…], time 14 day): 76.4 mg/dL
TG ([…], time 14 day): 127.2 mg/dL
TP ([…], time 14 day): 5.8 g/dL
gamma-GTP ([…], time 14 day): 1 IU/L
A/G ([…], time 28 day): 0.8
ALP ([…], time 28 day): 1057.2 IU/L
ALT ([…], time 28 day): 39.8 IU/L
AST ([…], time 28 day): 65.6 IU/L
BUN ([…], time 28 day): 16 mg/dL
CRE ([…], time 28 day): 0.2 mg/dL
Ca ([…], time 28 day): 10.7 mg/dL
Cl ([…], time 28 day): 104.2 meq/L
DBIL ([…], time 28 day): 0.01 mg/dL
GLC ([…], time 28 day): 190 mg/dL
IP ([…], time 28 day): 6.7 mg/dL
K ([…], time 28 day): 3.9 meq/L
LDH ([…], time 28 day): 55 IU/L
Na ([…], time 28 day): 142.8 meq/L
PL ([…], time 28 day): 157.2 mg/dL
RALB ([…], time 28 day): 2.8 g/dL
TBIL ([…], time 28 day): 0.06 mg/dL
TC ([…], time 28 day): 74.6 mg/dL
TG ([…], time 28 day): 152.2 mg/dL
TP ([…], time 28 day): 6.1 g/dL
gamma-GTP ([…], time 28 day): 1 IU/L
